Test results from patent US20080255206A1, “Rxr Agonists and Antagonists, Alone or in Combination with Ppar Ligands, in the Treatment of Metabolic and Cardiovascular Diseases” (priority 2005, published 2008).

Columns and labels:
RXRγ [1] = biological target: T1, RXRγ (Homo sapiens, UniProt P48443); assay: Retinoid activation assay, RXRγ (Schneider SL-3 cells, luciferase reporter); type: cell-based; settings: read-out: Activation EC50 RXR γ
T1 sequence (P48443 1-463): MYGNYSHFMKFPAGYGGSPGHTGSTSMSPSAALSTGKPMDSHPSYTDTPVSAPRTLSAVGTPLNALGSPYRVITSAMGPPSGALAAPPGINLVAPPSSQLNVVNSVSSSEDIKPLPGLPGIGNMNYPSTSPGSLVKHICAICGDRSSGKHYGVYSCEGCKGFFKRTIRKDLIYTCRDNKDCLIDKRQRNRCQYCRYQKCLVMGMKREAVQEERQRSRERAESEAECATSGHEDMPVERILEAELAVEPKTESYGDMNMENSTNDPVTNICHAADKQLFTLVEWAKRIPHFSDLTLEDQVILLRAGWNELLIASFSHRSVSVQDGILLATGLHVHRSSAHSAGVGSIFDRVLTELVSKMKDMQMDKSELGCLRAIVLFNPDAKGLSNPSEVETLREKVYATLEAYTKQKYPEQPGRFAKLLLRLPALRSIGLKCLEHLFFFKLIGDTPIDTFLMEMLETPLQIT
Protocol: (§1) Full length RXR cDNA is used for transfection. As reporter system, the luciferase gene is used in a construct with three copies of a RXR response element from rat CRBP gene, (formerly RARE from betaRAR gene), fused to alcoholdehydrogenase gene promoter in the plasmid pGL2-basic. Schneider SL-3 cells from Drosophila are transiently transfected 3-4 h before the experiment by the Ca-phosphate-DNA coprecipitation method. […] At the end of the incubation, the cell supernatants are assayed for luciferase activity. Results are given as EC50 (nM), the concentration leading to half-maximal activation.

RXRα Homodimer = biological target: T2, RXRα Homodimer (Homo sapiens, UniProt P19793); assay: RXRα homodimer activation (transactivation) assay; type: cell-based
T2 construct: expressed in transfected cells; host or cells: mammalian cells (BHK21, CV1, etc)
T2 sequence (P19793 1-462): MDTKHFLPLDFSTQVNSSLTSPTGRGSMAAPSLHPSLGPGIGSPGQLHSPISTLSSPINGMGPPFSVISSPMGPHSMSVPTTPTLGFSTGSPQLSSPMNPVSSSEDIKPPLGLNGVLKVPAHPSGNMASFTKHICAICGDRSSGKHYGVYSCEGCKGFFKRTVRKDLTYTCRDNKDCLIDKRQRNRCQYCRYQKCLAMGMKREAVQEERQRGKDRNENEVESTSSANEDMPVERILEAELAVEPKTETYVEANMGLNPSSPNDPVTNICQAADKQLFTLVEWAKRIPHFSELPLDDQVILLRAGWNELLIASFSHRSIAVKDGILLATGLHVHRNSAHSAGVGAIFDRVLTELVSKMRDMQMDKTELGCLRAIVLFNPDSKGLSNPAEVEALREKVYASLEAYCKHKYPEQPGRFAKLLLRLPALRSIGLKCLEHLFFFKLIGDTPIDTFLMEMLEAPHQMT
Description: (§2) Nuclear hormone receptor (NHR) ligand dependent transcriptional transactivation assay.
This secondary in vitro functional assay to characterize hits from the primary ligand binding screens is a GAL4-LBD transactivation assay. The Gal4-LBD protein consists of an in frame fusion of the transcription factor galactose 4 DNA binding domain from S.cerevisiae with the ligand binding domain (LBD) of a particular NHR. Briefly, a plasmid construct expressing the recombinant chimeric receptor is co-transfected into mammalian cells (BHK21, CV1, etc) with a luciferase reporter plasmid containing several copies in tandem of the GAL4 binding sites (promoter recognition elements) upstream from the minimal promoter driving the luciferase gene. The transfected cells are treated with compounds for 12-24 hours, lysates are produced and assayed for luciferase activity and normalized to internal standards such as GH, growth hormone or SEAP, secreted alkaline phosphatase. Ligand binding stabilizes the LBD conformation that recruits endogenous co-factors that mediate eventually the increased transcriptional activity of the luciferase reporter gene. By comparing the activation profile of a reference ligand or a natural ligand, the EC50 values for agonistic activity of a particular ligand can be measured. The extent of activation that can be measured is indicative of a partial, respectively full agonistic activity of a ligand. […]

RXRα [2] = biological target: T3, RXRα (Homo sapiens, UniProt P19793); assay: Retinoid activation assay, RXRα (Schneider SL-3 cells, luciferase reporter); type: cell-based; settings: read-out: Activation EC50 RXR α
T3 sequence (P19793 1-462): T2 sequence (P19793 1-462)
Protocol: as §1

RXRγ [3] = biological target: T1, RXRγ; assay: Retinoid binding assay, RXRγ; design: made in house; host or cells: E. coli; settings: [3H] 9-cis retinoic acid 20 nM; read-out: Binding Affinity IC50 RXR γ
Description: (§3) The DEF domains of RAR's and the full length RXR's, expressed in E.coli, are used to measure competitive retinoid binding. […] 9-cis retinoic acid (for RXR's), respectively. […] Separation of bound from free radioactivity is achieved by charcoal/dextran (RAR's) or by desalting columns (RXR's). […] Retinoid Activation Assays

PPARγ/RXRα Heterodimer = biological target: T4, PPARγ/RXRα Heterodimer (Homo sapiens, UniProt P19793); assay: PPARγ/RXRα heterodimer activation (transactivation) assay; type: cell-based
T4 construct: co-transfected with plasmids expressing the full length RXR heteropartner receptor; expressed in transfected cells
T4 sequence (P19793 1-462): T2 sequence (P19793 1-462)
T4 sequence (P37231 1-505 partner): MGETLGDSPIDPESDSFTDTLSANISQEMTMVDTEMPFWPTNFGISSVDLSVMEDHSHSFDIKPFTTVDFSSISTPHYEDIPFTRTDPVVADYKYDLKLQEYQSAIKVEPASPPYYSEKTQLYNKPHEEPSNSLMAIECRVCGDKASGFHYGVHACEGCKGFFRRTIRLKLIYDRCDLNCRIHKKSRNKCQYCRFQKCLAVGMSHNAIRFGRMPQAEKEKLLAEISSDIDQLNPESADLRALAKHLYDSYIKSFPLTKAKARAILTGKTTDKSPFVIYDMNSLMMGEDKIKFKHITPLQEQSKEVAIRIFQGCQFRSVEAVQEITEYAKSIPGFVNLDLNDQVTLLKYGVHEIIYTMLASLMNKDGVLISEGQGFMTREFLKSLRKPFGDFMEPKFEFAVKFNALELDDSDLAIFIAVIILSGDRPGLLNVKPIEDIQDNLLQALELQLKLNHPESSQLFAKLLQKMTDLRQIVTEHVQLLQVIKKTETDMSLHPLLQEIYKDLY
Description: as §2
Heterodimer reporter assays are potentially more important selection criteria for synthetic agonistic NHR ligands as they embody a more natural situation. Basically plasmids expressing the recombinant full length NHR are co-transfected with plasmids expressing the full length RXR heteropartner receptor and a reporter plasmid containing several copies of the natural responsive elements for the respective NHR driving the luciferase reporter gene.

RXRα [4] = biological target: T3, RXRα; assay: Retinoid binding assay, RXRα; design: made in house; host or cells: E. coli; settings: [3H] 9-cis retinoic acid 20 nM; read-out: Binding Affinity IC50 RXR α
Description: as §3

Structure (SMILES): CCCOc1c([C@@H]2C[C@@H]2/C=C/C(C)=C/C(=O)O)cc(C(C)(C)C)cc1C(C)(C)C (racemic) [Compound 20, (2E,4E)-5-[2-(3,5-Di-tert-butyl-2-propoxy-phenyl)-cyclopropyl]-3-methyl-penta-2,4-dienoic acid]
- EC50 (RXRγ [1]): ≥ 10 µM
- EC50 (RXRα Homodimer): > 10 µM
- EC50 (RXRα [2]): ≥ 10 µM
- IC50 (RXRγ [3]): 0.071 µM
- EC50 (PPARγ/RXRα Heterodimer): > 10 µM
- IC50 (RXRα [4]): 0.052 µM
